Measured values reported in ChEMBL document CHEMBL5137025, “Tuberculosis Drug Discovery: Challenges and New Horizons” (J Med Chem, 2022).
In brackets after ≈: the same amount, converted by molar mass.

Key:
[1] = system: Mycobacterium tuberculosis; assay: microbe, parasite or virus in culture; conditions: H37Rv
Description: Antibacterial activity against Mycobacterium tuberculosis H37Rv assessed as inhibition of bacterial growth

[2] = system: Mycobacterium tuberculosis; format: functional, H37Rv; conditions: dose 200 mg/kg; route po; time 2 weeks
[3] = Half life in Swiss-Webster mouse at 200 mg/kg, po via gavage measured after 4 hrs; format: ADME, organism-based; conditions: in vivo
physchem = conditions: sodium phosphate buffer, pH 7.4
in vitro = conditions: human, dermal fibroblasts
Description: Cytotoxicity against human dermal fibroblasts assessed as cell growth inhibition treated for 48 hrs by resazurin dye based assay

[4] = system: Mycobacterium tuberculosis; format: functional, H37Rv; conditions: dose 200 mg/kg; route po; time 8 weeks
[5] = system: Mycobacterium tuberculosis; format: functional, H37Rv; conditions: dose 10 mg/kg; route po; time 2 weeks
[6] = system: Mycobacterium tuberculosis; assay: Antibacterial activity against Mycobacterium tuberculosis infected in macrophage assessed as inhibition of bacterial growth; format: functional, organism-based
[7] = Solubility of the compound in PBS at pH 7.4 incubated for 24 hrs by LC-MS analysis; format: physicochemical
[8] = Metabolic stability in CD-1 mouse liver microsomes assessed as half life measured for 5 to 40 mins by LC-MS/MS analysis; format: ADME, Microsome; conditions: time 5-40 min
[9] = Solubility of the compound; format: physicochemical
HepG2 [10] = assay: Cytotoxicity against human HepG2 cells; format: functional
[11] = system: Mycobacterium tuberculosis; assay: Antibacterial activity against Mycobacterium tuberculosis in acute Mtb infection C57BL/6J mouse model assessed as reduction in log10 CFU in lungs at 350 mg/kg, po for 8 days; format: functional; conditions: time 8 day
[12] = Cytotoxicity against African green monkey Vero cells by MTT assay; format: toxicity, cell-based; conditions: chlorocebus sabaeus
HepG2 [13] = assay: Cytotoxicity against human HepG2 cells by MTT assay; format: functional
[14] = system: Mycobacterium tuberculosis; format: functional, H37Rv; conditions: dose 25 mg/kg; route ig; time 3 weeks
[15] = Inhibition of Mycobacterium tuberculosis ASADH expressed in Escherichia coli BL21
[16] = system: Mycobacterium tuberculosis; assay: Antibacterial activity against Mycobacterium tuberculosis in acute Mtb infection 129sv dehydropeptidase-1 KO mouse model assessed as reduction in log10 CFU administered orally twice daily for 6 days; format: functional; conditions: route po; time 6 day
HepG2 [17] = assay: Cytotoxicity against human HepG2 cells assessed as reduction in cell viability treated for 3 days by resazurin reduction microplate assay; format: functional; conditions: HepG2, 72 h, time 3 day
[18] = system: Mycobacterium tuberculosis; format: functional, H37Rv; conditions: dose 100 mg/kg; route po; time 10 day
[19] = system: Mycobacterium tuberculosis; format: functional; conditions: H37Rv, time 6 day
[20] = Inhibition of bacterial DdlA; design: species or system Bacteria
[21] = system: Mycobacterium tuberculosis; assay: Antibacterial activity against Mycobacterium tuberculosis in acute Mtb infection mouse model assessed as reduction in log10 CFU at 25 mg/kg treated for 3 weeks; format: functional
[22] = system: Mycobacterium tuberculosis; format: functional, H37Rv; conditions: dose 200 mg/kg; route po; time 10 day
Cytochrome P450 2C9 = Cytochrome P450 2C9 (Homo sapiens, UniProt P11712); assay: Inhibition of CYP2C9 in human liver microsome in presence of NADPH measured after 10 mins by LC/MS/MS analysis; format: ADME, microsomes
[23] = Metabolic stability in human liver microsomes assessed as half life in presence of NADPH regenerating system measured for 5 to 60 mins by LC/MS/MS analysis; format: ADME, Microsome; conditions: time 5-60 min
Cytochrome P450 2C19 = Cytochrome P450 2C19 (Homo sapiens, UniProt P33261); assay: Inhibition of CYP2C19 in human liver microsome in presence of NADPH measured after 10 mins by LC/MS/MS analysis; format: ADME, microsomes
[24] = Oral bioavailability in Sprague-Dawley rat at 5 mg/kg measured for 0.083 to 24 hrs by LC-MS/MS analysis; format: ADME, organism-based; conditions: in vivo, time 0.083-24 hrs
[25] = Metabolic stability in mouse liver microsomes assessed as half life in presence of NADPH regenerating system measured for 5 to 60 mins by LC/MS/MS analysis; format: ADME, Microsome; conditions: time 5-60 min
[26] = Inhibition of Mycobacterium tuberculosis Shikimate dehydrogenase expressed in Escherichia coli BL21 using shikimic acid as substrate incubated for 60 mins in presence of NADP+ by enzymatic assay
[27] = system: Mycobacterium tuberculosis; format: functional, H37Rv; conditions: dose 50 mg/kg; route po; time 15 day
[28] = Metabolic stability in rat liver microsomes assessed as half life in presence of NADPH regenerating system measured for 5 to 60 mins by LC/MS/MS analysis; format: ADME, Microsome; conditions: time 5-60 min
[29] = Half life in Sprague-Dawley rat at 5 mg/kg, po measured for 0.083 to 24 hrs by LC-MS/MS analysis; format: ADME, organism-based; conditions: in vivo, time 0.083-24 hrs
Cytochrome P450 1A2 = target: T1, Cytochrome P450 1A2 (Homo sapiens, UniProt P05177); assay: Inhibition of CYP1A2 in human liver microsome in presence of NADPH measured after 10 mins by LC/MS/MS analysis; format: microsomes
T1 sequence (P05177 whole entry): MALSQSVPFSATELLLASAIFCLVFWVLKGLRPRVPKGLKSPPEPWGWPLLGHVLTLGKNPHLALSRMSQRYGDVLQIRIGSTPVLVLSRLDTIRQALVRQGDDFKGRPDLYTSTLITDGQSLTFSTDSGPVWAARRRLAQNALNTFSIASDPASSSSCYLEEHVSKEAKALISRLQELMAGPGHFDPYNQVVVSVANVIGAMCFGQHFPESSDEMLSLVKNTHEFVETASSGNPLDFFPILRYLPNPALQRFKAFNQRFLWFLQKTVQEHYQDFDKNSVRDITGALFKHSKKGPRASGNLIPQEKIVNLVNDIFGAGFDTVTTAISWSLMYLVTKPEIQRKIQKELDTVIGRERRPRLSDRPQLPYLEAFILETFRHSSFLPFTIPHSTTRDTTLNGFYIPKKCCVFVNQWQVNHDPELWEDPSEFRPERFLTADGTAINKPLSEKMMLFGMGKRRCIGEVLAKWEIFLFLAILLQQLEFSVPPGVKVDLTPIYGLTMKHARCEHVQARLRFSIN

[30] = Half life in mouse; format: ADME, organism-based; conditions: in vivo
[31] = system: Mycobacterium tuberculosis; format: functional, H37Rv; conditions: dose 400 mg/kg; route sc; time 3 weeks
[32] = system: Mycobacterium tuberculosis; assay: Antibacterial activity against Mycobacterium tuberculosis in acute Mtb infection 129sv dehydropeptidase-1 KO mouse model assessed as reduction in log10 CFU administered twice daily for 6 days in presence of clavulanate; format: functional; conditions: time 6 day
[33] = system: Mycobacterium tuberculosis; format: functional; conditions: H37Rv, 336 h, time 14 day

Sequence of Cytochrome P450 2C9 (P11712 whole entry): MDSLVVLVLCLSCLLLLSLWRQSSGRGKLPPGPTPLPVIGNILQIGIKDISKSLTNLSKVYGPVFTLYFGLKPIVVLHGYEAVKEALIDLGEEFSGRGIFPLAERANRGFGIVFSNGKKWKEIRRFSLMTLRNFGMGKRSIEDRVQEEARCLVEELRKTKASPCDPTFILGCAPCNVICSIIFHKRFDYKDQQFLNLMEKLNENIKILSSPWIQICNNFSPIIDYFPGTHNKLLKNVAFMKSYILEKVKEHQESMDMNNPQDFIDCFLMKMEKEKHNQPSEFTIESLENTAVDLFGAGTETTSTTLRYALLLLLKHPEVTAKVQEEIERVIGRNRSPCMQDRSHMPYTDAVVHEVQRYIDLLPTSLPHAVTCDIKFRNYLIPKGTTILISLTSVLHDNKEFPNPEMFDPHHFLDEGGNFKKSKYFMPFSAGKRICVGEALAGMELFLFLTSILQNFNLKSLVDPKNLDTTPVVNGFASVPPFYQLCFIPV
Sequence of Cytochrome P450 2C19 (P33261 whole entry): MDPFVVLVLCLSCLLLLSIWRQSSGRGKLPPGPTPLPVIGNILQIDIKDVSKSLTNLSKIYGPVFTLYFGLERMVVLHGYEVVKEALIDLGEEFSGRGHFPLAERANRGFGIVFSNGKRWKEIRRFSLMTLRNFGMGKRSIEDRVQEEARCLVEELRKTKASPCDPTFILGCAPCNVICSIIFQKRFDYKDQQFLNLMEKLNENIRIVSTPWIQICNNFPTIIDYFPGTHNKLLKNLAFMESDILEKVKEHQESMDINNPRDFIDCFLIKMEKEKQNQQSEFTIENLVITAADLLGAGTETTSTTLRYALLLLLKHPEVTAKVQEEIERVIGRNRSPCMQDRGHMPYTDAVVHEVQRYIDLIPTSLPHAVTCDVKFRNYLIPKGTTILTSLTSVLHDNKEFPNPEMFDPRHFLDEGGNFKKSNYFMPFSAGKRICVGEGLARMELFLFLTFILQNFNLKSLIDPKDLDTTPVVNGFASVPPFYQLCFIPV

For `CNC(=O)c1c(-c2ccc(O)cc2)oc2ccc(O)c(CN3CCCCC3)c12`, the MIC90 [1] was 0.13 µM (≈ 0.0495 µg/mL), the Activity [2] was 0.9 log10CFU and the half-life [3] was 60 min. It also gave a solubility kinetic at 24 h (physchem) of 74 µM (≈ 28.2 µg/mL), a CC50 at 48 h (in vitro) of over 100 µM and an Activity [4] of 1.9 log10CFU.
Work on `O=C(NCCC(F)(F)F)c1ccc(-c2noc(C3CC3)n2)cc1` yielded an Activity [5] of over 2 log10CFU, an EC50 [6] of 0.072 µM and a solubility at 24 h [7] of 30 µM (≈ 9.76 µg/mL). For the same molecule, the half-life [8] was 19 min.
In the case of `O=S1(=O)C[C@H](O)[C@@H](N2CCN(c3ccc(F)cc3Cl)CC2)C1`, the MIC [1] is reported as 2.3 µM (≈ 0.802 µg/mL), the solubility [9] is reported as 434 µM (≈ 151 µg/mL) and the CC50 (HepG2 [10]) is reported as over 100 µM. For the same molecule, the Activity [11] was 1.4 log10CFU.
With `O=C(Nc1nnc(C2CCCO2)o1)c1ccc([N+](=O)[O-])o1` (stereo unspecified) the CC50 [12] was over 218 µM, the CC50 (HepG2 [13]) was over 218 µM and the MIC [1] was 1.7 µM (≈ 0.5 µg/mL). It also gave an Activity [14] of 1.7 log10CFU and an IC50 [15] of 2 µM.
In the case of `CO[C@H]1CCC[C@H]2C1=C(C(=O)OC(C)OC(=O)OC1CCCCC1)N1C(=O)[C@H]([C@@H](C)O)[C@@H]21` (stereo partly specified) [SANFETRINEM CILEXETIL], the Activity [16] is reported as 1.4 log10CFU.
`O=C(/C=C/c1nccs1)N1CCN(Cc2ccc3c(c2)OCO3)CC1` showed a CC50 (HepG2 [17]) of 210 µM, an Activity [18] of 0.9 log10CFU and an MIC90 [19] of 0.84 µM (≈ 0.3 µg/mL).
`OC1(c2ccc(OC(F)F)cc2)C[N+](c2ccccc2)=C2CCCCN21.[Br-]` (stereo unspecified) showed an MIC [1] of 1.1 µM, an IC50 [20] of 6.2 µM and a CC50 (HepG2 [10]) of 263 µM. It also gave an Activity [21] of 1.2 log10CFU.
Molecule `O=C(/C=C/c1cccs1)N1CCN(Cc2ccc3c(c2)OCO3)CC1` has a CC50 (HepG2 [17]) of 140 µM, an Activity [22] of 0.4 log10CFU and an MIC90 [19] of 0.14 µM (≈ 0.0499 µg/mL).
`COc1ccc(OCc2nn3c(-c4ccc(Br)cc4)nnc3s2)cc1` showed an IC50 (Cytochrome P450 2C9) of 0.56 µM, an MIC [1] of 4.8 µM (≈ 2 µg/mL) and a half-life [23] of 1.1 min. The IC50 (Cytochrome P450 2C19) was 0.56 µM, the bioavailability [24] was 14% and the half-life [25] was 1.2 min. It also gave an IC50 [26] of 29 µM, an Activity [27] of 1.7 log10CFU and a half-life [28] of 17 min. For the same molecule, the CC50 (HepG2 [10]) was 50 µM, the half-life [29] was 66 min and the IC50 (Cytochrome P450 1A2) was 0.56 µM.
In the case of `C[C@@H](O)[C@H]1C(=O)N2C(C(=O)O)=C(S[C@@H]3CN[C@H](C(=O)N(C)C)C3)[C@H](C)[C@H]12` [MEROPENEM], the half-life [30] is reported as 27.6 min, the Activity [31] is reported as under 2 log10CFU and the Activity [32] is reported as 1.7 log10CFU. For the same molecule, the MIC90 [33] was 10 µM (≈ 3.83 µg/mL).
